Assay results as given in US4129737A, “Process for the preparation of an 8-alkyl-5-oxo-5,8-dihydro-pyrido(2,3-d)pyrimidine-6-carboxylic acid” (priority 1972, dated 1978).
≈ marks a conversion by molar mass, not a printed value. Where two headings read alike, the source gives them in different places.

Assays:
[1] = test system: Pr. vulgaris; experiment: Minimum inhibitory concentration by agar dilution, Pr. vulgaris; type: cell-based; settings: Proteus vulgaris, 37° C., 18 hours, read-out: minimum inhibitory concentration (M.I.C.)
Experimental: (§1) (a) Trypticase soya medium (T.S.A.), which is very suitable for culturing the majority of microorganisms; it has the following composition:
(§2) (b) Ordinarily nutrient agar (N.A.), which is less rich in nutrients, corresponds to the following formulation: […]
(§3) Table I gives the minimum inhibitory concentrations (expressed in μg/cm^3) for the various microorganisms tested on each medium.
(§4) The products were tested on three Gram positive microorganisms (1 to 3) […] and on 10 Gram negative microorganisms (4 to 13).
(§5) Table (II) gives the minimum inhibitory concentrations of the compounds of Examples XII to XVI, determined on the agar medium, N.A., and expressed in μg/cm^3.

[2] = test system: Staphylococcus 209 P; experiment: Minimum inhibitory concentration by agar dilution, Staphylococcus 209 P; type: cell-based; settings: Staphylococcus, 37° C., 18 hours, read-out: minimum inhibitory concentration (M.I.C.)
Experimental: as §1, §2, §3, §4, §5

[3] = test system: Pr. morganii A 236; experiment: Average MIC, solid medium (nutrient agar) dilution method; settings: Morganella morganii, A236, 18 h, read-out: minimum inhibitory concentration, average
[4] = test system: Pr. mirabilis; experiment: Minimum inhibitory concentration by agar dilution, Pr. mirabilis; type: cell-based; settings: Proteus mirabilis, 37° C., 18 hours, read-out: minimum inhibitory concentration (M.I.C.)
Experimental: as §1, §2, §3, §4, §5

[5] = test system: Providencia 0223; experiment: Average MIC, solid medium (nutrient agar) dilution method; settings: Providencia, 0223, 18 h, read-out: minimum inhibitory concentration, average
[6] = test system: Bord. bronchiseptica; experiment: Minimum inhibitory concentration by agar dilution, Bord. bronchiseptica; type: cell-based; settings: Bordetella bronchiseptica, 37° C., 18 hours, read-out: minimum inhibitory concentration (M.I.C.)
Experimental: as §1, §2, §3, §4, §5

[7] = test system: B. subtilis; experiment: Minimum inhibitory concentration by agar dilution, B. subtilis; type: cell-based; settings: Bacillus subtilis, 37° C., 18 hours, read-out: minimum inhibitory concentration (M.I.C.)
Experimental: as §1, §2, §3, §4, §5

[8] = test system: Streptococcus DM19; experiment: Average MIC, solid medium (nutrient agar) dilution method; settings: DM19, 18 h, read-out: minimum inhibitory concentration, average
[9] = test system: Streptococcus; experiment: Minimum inhibitory concentration by agar dilution, Streptococcus Group A; type: cell-based; settings: 37° C., 18 hours, read-out: minimum inhibitory concentration (M.I.C.)
Experimental: as §1, §2, §3, §4, §5

[10] = in vivo; settings: dog, 2.5 mg/kg
Experimental: In an experiment involving a 20 kg dog, 50 mg of the compound of Example VIII, corresponding to 2.5 mg/kg, were administered by means of a probang. The urine of the animal was removed by catheterisation at the 3rd and at the 7th hour, and the anti-bacterial activity of these samples was measured, taking the compound administered as the reference product.

[11] = test system: Staphylococcus 9144; experiment: Average MIC, solid medium (nutrient agar) dilution method; settings: Staphylococcus, 9144, 18 h, read-out: minimum inhibitory concentration, average
[12] = test system: Sh. sonnei I.P.S.; experiment: as above; type: cell-based; settings: Shigella sonnei, 18 h, average of five determinations, read-out: minimum inhibitory concentration, average
[13] = test system: Gram-negative microorganisms; experiment: In vitro anti-microbial activity on agar media, overall; type: cell-based
Experimental: as §4

[14] = Toxicity, overall statement; settings: in vivo
[15] = test system: Klebs. pneumoniae; experiment: Minimum inhibitory concentration by agar dilution, Klebs. pneumoniae; type: cell-based; settings: Klebsiella pneumoniae, 37° C., 18 hours, read-out: minimum inhibitory concentration (M.I.C.)
Experimental: as §1, §2, §3, §4, §5

[16] = test system: rats; experiment: Oral toxicity in rats; type: in vivo; settings: doses as high as 4 g per kilogram
[17] = N.A. (nutrient agar, pH 6.8), Table I
[18] = T.S.A. (trypticase soya medium, pH 7.3)

## CCn1cc(C(=O)O)c(=O)c2cnc(N3CCNCC3)nc21 [Example VIII, 2-Piperazino-5-oxo-8-ethyl-5,8-dihydro-pyrido(2,3-d)pyrimidine-6-carboxylicacid]
[1]; [17]
  MIC: 6.2 µg/mL (≈ 20.4 µM)
[1]; [18]
  MIC: 1.6 µg/mL (≈ 5.27 µM)
[2]; [17]
  MIC: 12.5 µg/mL (≈ 41.2 µM)
[2]; [18]
  MIC: 12.5 µg/mL (≈ 41.2 µM)
[3]
  MIC: 0.4 µg/mL (≈ 1.32 µM)
[4]; [17]
  MIC: 0.8 µg/mL (≈ 2.64 µM)
[4]; [18]
  MIC: 0.8 µg/mL (≈ 2.64 µM)
[5]
  MIC: 16.2 µg/mL (≈ 53.5 µM)
[6]; [17]
  MIC: 12.5 µg/mL (≈ 41.2 µM)
[6]; [18]
  MIC: 50 µg/mL (≈ 165 µM)
[7]; [17]
  MIC: 3.1 µg/mL (≈ 10.2 µM)
[7]; [18]
  MIC: 6.2 µg/mL (≈ 20.4 µM)
[8]
  MIC: 100 µg/mL (≈ 330 µM)
[9]; [17]
  MIC: 25 µg/mL (≈ 82.4 µM)
[9]; [18]
  MIC: 25 µg/mL (≈ 82.4 µM)
[10]
  urinary concentration at 7 hours relative to minimum inhibitory concentrations: still very much greater than the minimum inhibitory concentrations
[10]; po
  concentration at 3 h: 185 µg/mL
  concentration at 7 h: 90 µg/mL
[11]
  MIC: 6.22 µg/mL (≈ 20.5 µM)
[12]
  MIC: 0.56 µg/mL (≈ 1.85 µM)
[13]; in vitro
  activity against Gram-negative microorganisms: particularly active against Gram-negative microorganisms
[13]; majority of the Gram negative microorganisms, Table III
  activity compared with nalidixic acid and the acid of Example III: more active on the majority of the Gram negative microorganisms than the 2 other substances
[14]
  toxicity: very low toxicity
[15]; [17]
  MIC: 0.8 µg/mL (≈ 2.64 µM)
[15]; [18]
  MIC: 1.6 µg/mL (≈ 5.27 µM)
[16]
  deaths: no deaths were observed
